Experimental data published in patent publication US7994140B2, “Classes of compounds that interact with GPCRs” (Alchemia Limited, priority 2002, dated 2011).

What follows are compounds tested against T1, SST5 (Homo sapiens, UniProt P35346) (assay: GPCR radioligand binding (RLB) assay, somatostatin SST5, [125I]SST-14). Conditions: 10 micromolar compound; recombinant human receptor membranes (HEK 293).
T1 construct: purchased Perkin Elmer BioSignal; host or cells: HEK 293
In short: (§1)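 Competition binding against radioligand ([125I]NDP-αMSH for MC4, [125I]SST-14 for SST5) on membranes of HEK 293 cells carrying the human receptor; buffer and incubation time optimized per receptor. Filtration through 0.5% PEI-treated glass fiber, washing, then scintillation counting.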

T1 sequence (P35346 whole entry): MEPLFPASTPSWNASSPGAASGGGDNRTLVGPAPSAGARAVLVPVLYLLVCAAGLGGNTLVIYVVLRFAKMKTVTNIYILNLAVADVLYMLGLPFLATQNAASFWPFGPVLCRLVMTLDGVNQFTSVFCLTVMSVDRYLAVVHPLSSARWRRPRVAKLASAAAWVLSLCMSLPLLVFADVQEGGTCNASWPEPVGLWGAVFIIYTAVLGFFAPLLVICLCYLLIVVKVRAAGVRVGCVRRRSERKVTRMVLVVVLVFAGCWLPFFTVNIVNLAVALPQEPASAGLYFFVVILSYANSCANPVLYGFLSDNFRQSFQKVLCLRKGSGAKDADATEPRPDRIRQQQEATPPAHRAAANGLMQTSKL

SMILES	SST5 inhibition at 10 micromolar
COC[C@H]1OC(OCCc2ccccc2)[C@H](NC(=O)CCCNC(=N)N)[C@@H](OCc2ccc(-c3ccccc3)cc2)[C@@H]1O (stereo partly drawn) [Compound 49]	+ (Indicates inhibition greater than . . . 50%)
COC[C@H]1OC(OCc2ccc(-c3ccccc3)cc2)[C@H](NC(=O)CCCN)[C@@H](OCc2ccc(-c3ccccc3)cc2)[C@@H]1O (stereo partly drawn) [Compound 53]	+ (Indicates inhibition greater than . . . 50%)
CSC1OC(COCc2ccc3ccccc3c2)C(O)C(OCc2ccccc2)C1NC(=O)CCCN (stereo not drawn) [Compound 141]	+ (Indicates inhibition greater than . . . 50%)
CSC1OC(COCc2ccccc2)C(O)C(OCc2ccccc2)C1NC(=O)CCCNC(=N)N (stereo not drawn) [Compound 124]	+ (Indicates inhibition greater than . . . 50%)
COC[C@H]1OC(OCc2ccc(Cl)cc2)[C@H](NC(=O)CCNC(=N)N)[C@@H](OCc2ccc(-c3ccccc3)cc2)[C@@H]1O (stereo partly drawn) [Compound 13]	+ (Indicates inhibition greater than . . . 50%)
CSC1OC(COCc2ccc(Cl)cc2)C(O)C(OCc2ccc(Cl)cc2)C1NC(=O)CCCNC(=N)N (stereo not drawn) [Compound 154]	+ (Indicates inhibition greater than . . . 50%)
COC[C@H]1OC(OCc2ccc3ccccc3c2)[C@H](NC(=O)CCNC(=N)N)[C@@H](OCc2ccc(-c3ccccc3)cc2)[C@@H]1O (stereo partly drawn) [Compound 36]	+ (Indicates inhibition greater than . . . 50%)
CSC1OC(COCc2ccccc2)C(O)C(OCc2ccc(-c3ccccc3)cc2)C1NC(=O)CCNC(=N)N (stereo not drawn) [Compound 170]	+ (Indicates inhibition greater than . . . 50%)
CSC1OC(COCc2ccc3ccccc3c2)C(O)C(OCc2ccc(-c3ccccc3)cc2)C1NC(=O)CNC(=N)N (stereo not drawn) [Compound 186]	+ (Indicates inhibition greater than . . . 50%)
CSC1OC(COCc2ccccc2)C(O)C(OCc2ccc(-c3ccccc3)cc2)C1NC(=O)CN (stereo not drawn) [Compound 167]	+ (Indicates inhibition greater than . . . 50%)
CSC1OC(COCc2ccccc2)C(O)C(OCc2ccc(-c3ccccc3)cc2)C1NC(=O)CCCNC(=N)N (stereo not drawn) [Compound 172]	+ (Indicates inhibition greater than . . . 50%)
CSC1OC(COCc2ccc(-c3ccccc3)cc2)C(O)C(OCc2ccc(Cl)cc2)C1NC(=O)CCCNC(=N)N (stereo not drawn) [Compound 160]	+ (Indicates inhibition greater than . . . 50%)
CSC1OC(COCc2ccc(-c3ccccc3)cc2)C(O)C(OCc2ccc(-c3ccccc3)cc2)C1NC(=O)CNC(=N)N (stereo not drawn) [Compound 180]	+ (Indicates inhibition greater than . . . 50%)
CSC1OC(COCc2ccc(Cl)cc2)C(O)C(OCc2ccc(Cl)cc2)C1NC(=O)CNC(=N)N (stereo not drawn) [Compound 150]	+ (Indicates inhibition greater than . . . 50%)
CSC1OC(COCc2ccc3ccccc3c2)C(O)C(OCc2ccccc2)C1NC(=O)CCCNC(=N)N (stereo not drawn) [Compound 142]	+ (Indicates inhibition greater than . . . 50%)
CSC1OC(COCc2ccc(Cl)cc2)C(O)C(OCc2ccccc2)C1NC(=O)CCNC(=N)N (stereo not drawn) [Compound 128]	+ (Indicates inhibition greater than . . . 50%)

Same assay, conditions: 10 micromolar; Example Library 4

SMILES	SSTS inhibition at 10 micromolar
COCC1OC(OCc2ccccc2)C(NC(=O)CCCNC(=N)N)C(OCc2ccccc2)C1O (stereo not drawn) [Compound 218]	+ (Indicates inhibition greater than . . . 50%)
COCC1OC(OCc2ccc3ccccc3c2)C(NC(=O)CNC(=N)N)C(OCc2ccc(Cl)cc2)C1O (stereo not drawn) [Compound 291]	+ (Indicates inhibition greater than . . . 50%)
COCC1OC(OCCc2ccccc2)C(NC(=O)CCNC(=N)N)C(OCc2ccc3ccccc3c2)C1O (stereo not drawn) [Compound 281]	+ (Indicates inhibition greater than . . . 50%)
COCC1OC(OCc2ccccc2)C(NC(=O)CCCNC(=N)N)C(OCc2ccc(Cl)cc2)C1O (stereo not drawn) [Compound 224]	+ (Indicates inhibition greater than . . . 50%)
COCC1OC(OCCc2ccccc2)C(NC(=O)CNC(=N)N)C(OCc2ccc3ccccc3c2)C1O (stereo not drawn) [Compound 279]	+ (Indicates inhibition greater than . . . 50%)
COCC1OC(OCc2ccccc2)C(NC(=O)CNC(=N)N)C(OCc2ccc(-c3ccccc3)cc2)C1O (stereo not drawn) [Compound 226]	+ (Indicates inhibition greater than . . . 50%)
COCC1OC(OCCc2ccccc2)C(NC(=O)CN)C(OCc2ccc(-c3ccccc3)cc2)C1O (stereo not drawn) [Compound 274]	+ (Indicates inhibition greater than . . . 50%)
COCC1OC(OCc2ccc3ccccc3c2)C(NC(=O)CCNC(=N)N)C(OCc2ccc(-c3ccccc3)cc2)C1O (stereo not drawn) [Compound 299]	+ (Indicates inhibition greater than . . . 50%)
COCC1OC(OCc2ccc(Cl)cc2)C(NC(=O)CCNC(=N)N)C(OCc2ccc(Cl)cc2)C1O (stereo not drawn) [Compound 245]	+ (Indicates inhibition greater than . . . 50%)
COCC1OC(OCc2ccc3ccccc3c2)C(NC(=O)CCCN)C(OCc2ccc(-c3ccccc3)cc2)C1O (stereo not drawn) [Compound 300]	+ (Indicates inhibition greater than . . . 50%)
COCC1OC(OCc2ccc3ccccc3c2)C(NC(=O)CCCN)C(OCc2ccc(Cl)cc2)C1O (stereo not drawn) [Compound 294]	+ (Indicates inhibition greater than . . . 50%)

The compounds below were run against T2, MC4 (Homo sapiens, UniProt P32245) (assay: GPCR radioligand binding (RLB) assay, melanocortin MC4, [125I]NDP-αMSH). Conditions: 10 micromolar compound; recombinant human receptor membranes (HEK 293).
T2 construct: purchased Perkin Elmer BioSignal; host or cells: HEK 293
T2 sequence (P32245 whole entry): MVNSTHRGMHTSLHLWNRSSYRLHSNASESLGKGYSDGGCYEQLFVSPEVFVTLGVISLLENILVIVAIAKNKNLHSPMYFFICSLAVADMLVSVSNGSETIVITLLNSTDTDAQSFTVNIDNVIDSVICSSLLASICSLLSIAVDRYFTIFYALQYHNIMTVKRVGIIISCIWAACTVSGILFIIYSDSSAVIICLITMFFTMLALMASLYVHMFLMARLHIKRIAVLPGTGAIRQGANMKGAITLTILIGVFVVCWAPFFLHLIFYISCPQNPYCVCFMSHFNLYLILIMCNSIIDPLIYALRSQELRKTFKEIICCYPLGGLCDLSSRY
In short: as §1

SMILES	MC4 inhibition at 10 micromolar
COC[C@H]1OC(OCCc2ccccc2)[C@H](NC(=O)CCCNC(=N)N)[C@@H](OCc2ccc(-c3ccccc3)cc2)[C@@H]1O (stereo partly drawn) [Compound 49]	+ (Indicates inhibition greater than . . . 50%)
COC[C@H]1OC(OCc2ccc(-c3ccccc3)cc2)[C@H](NC(=O)CCCN)[C@@H](OCc2ccc(-c3ccccc3)cc2)[C@@H]1O (stereo partly drawn) [Compound 53]	+ (Indicates inhibition greater than . . . 50%)
CSC1OC(COCc2ccc3ccccc3c2)C(O)C(OCc2ccccc2)C1NC(=O)CCCN (stereo not drawn) [Compound 141]	+ (Indicates inhibition greater than . . . 50%)
CSC1OC(COCc2ccccc2)C(O)C(OCc2ccccc2)C1NC(=O)CCCNC(=N)N (stereo not drawn) [Compound 124]	+ (Indicates inhibition greater than . . . 50%)
COC[C@H]1OC(OCc2ccc(Cl)cc2)[C@H](NC(=O)CCNC(=N)N)[C@@H](OCc2ccc(-c3ccccc3)cc2)[C@@H]1O (stereo partly drawn) [Compound 13]	+ (Indicates inhibition greater than . . . 50%)
CSC1OC(COCc2ccc(Cl)cc2)C(O)C(OCc2ccc(Cl)cc2)C1NC(=O)CCCNC(=N)N (stereo not drawn) [Compound 154]	+ (Indicates inhibition greater than . . . 50%)
COC[C@H]1OC(OCc2ccc3ccccc3c2)[C@H](NC(=O)CCNC(=N)N)[C@@H](OCc2ccc(-c3ccccc3)cc2)[C@@H]1O (stereo partly drawn) [Compound 36]	+ (Indicates inhibition greater than . . . 50%)
CSC1OC(COCc2ccccc2)C(O)C(OCc2ccc(-c3ccccc3)cc2)C1NC(=O)CCNC(=N)N (stereo not drawn) [Compound 170]	+ (Indicates inhibition greater than . . . 50%)
CSC1OC(COCc2ccc3ccccc3c2)C(O)C(OCc2ccc(-c3ccccc3)cc2)C1NC(=O)CNC(=N)N (stereo not drawn) [Compound 186]	+ (Indicates inhibition greater than . . . 50%)
CSC1OC(COCc2ccccc2)C(O)C(OCc2ccc(-c3ccccc3)cc2)C1NC(=O)CN (stereo not drawn) [Compound 167]	+ (Indicates inhibition greater than . . . 50%)
CSC1OC(COCc2ccccc2)C(O)C(OCc2ccc(-c3ccccc3)cc2)C1NC(=O)CCCNC(=N)N (stereo not drawn) [Compound 172]	+ (Indicates inhibition greater than . . . 50%)
CSC1OC(COCc2ccc(-c3ccccc3)cc2)C(O)C(OCc2ccc(Cl)cc2)C1NC(=O)CCCNC(=N)N (stereo not drawn) [Compound 160]	+ (Indicates inhibition greater than . . . 50%)
CSC1OC(COCc2ccc(-c3ccccc3)cc2)C(O)C(OCc2ccc(-c3ccccc3)cc2)C1NC(=O)CNC(=N)N (stereo not drawn) [Compound 180]	+ (Indicates inhibition greater than . . . 50%)
CSC1OC(COCc2ccc(Cl)cc2)C(O)C(OCc2ccc(Cl)cc2)C1NC(=O)CNC(=N)N (stereo not drawn) [Compound 150]	+ (Indicates inhibition greater than . . . 50%)
CSC1OC(COCc2ccc3ccccc3c2)C(O)C(OCc2ccccc2)C1NC(=O)CCCNC(=N)N (stereo not drawn) [Compound 142]	+ (Indicates inhibition greater than . . . 50%)
CSC1OC(COCc2ccc(Cl)cc2)C(O)C(OCc2ccccc2)C1NC(=O)CCNC(=N)N (stereo not drawn) [Compound 128]	+ (Indicates inhibition greater than . . . 50%)

Same assay, conditions: 10 micromolar; Example Library 4

SMILES	MC4 inhibition at 10 micromolar
COCC1OC(OCc2ccccc2)C(NC(=O)CCCNC(=N)N)C(OCc2ccccc2)C1O (stereo not drawn) [Compound 218]	+ (Indicates inhibition greater than . . . 50%)
COCC1OC(OCc2ccc3ccccc3c2)C(NC(=O)CNC(=N)N)C(OCc2ccc(Cl)cc2)C1O (stereo not drawn) [Compound 291]	+ (Indicates inhibition greater than . . . 50%)
COCC1OC(OCCc2ccccc2)C(NC(=O)CCNC(=N)N)C(OCc2ccc3ccccc3c2)C1O (stereo not drawn) [Compound 281]	+ (Indicates inhibition greater than . . . 50%)
COCC1OC(OCc2ccccc2)C(NC(=O)CCCNC(=N)N)C(OCc2ccc(Cl)cc2)C1O (stereo not drawn) [Compound 224]	+ (Indicates inhibition greater than . . . 50%)
COCC1OC(OCCc2ccccc2)C(NC(=O)CNC(=N)N)C(OCc2ccc3ccccc3c2)C1O (stereo not drawn) [Compound 279]	+ (Indicates inhibition greater than . . . 50%)
COCC1OC(OCc2ccccc2)C(NC(=O)CNC(=N)N)C(OCc2ccc(-c3ccccc3)cc2)C1O (stereo not drawn) [Compound 226]	+ (Indicates inhibition greater than . . . 50%)
COCC1OC(OCCc2ccccc2)C(NC(=O)CN)C(OCc2ccc(-c3ccccc3)cc2)C1O (stereo not drawn) [Compound 274]	+ (Indicates inhibition greater than . . . 50%)
COCC1OC(OCc2ccc3ccccc3c2)C(NC(=O)CCNC(=N)N)C(OCc2ccc(-c3ccccc3)cc2)C1O (stereo not drawn) [Compound 299]	+ (Indicates inhibition greater than . . . 50%)
COCC1OC(OCc2ccc(Cl)cc2)C(NC(=O)CCNC(=N)N)C(OCc2ccc(Cl)cc2)C1O (stereo not drawn) [Compound 245]	+ (Indicates inhibition greater than . . . 50%)
COCC1OC(OCc2ccc3ccccc3c2)C(NC(=O)CCCN)C(OCc2ccc(-c3ccccc3)cc2)C1O (stereo not drawn) [Compound 300]	+ (Indicates inhibition greater than . . . 50%)
COCC1OC(OCc2ccc3ccccc3c2)C(NC(=O)CCCN)C(OCc2ccc(Cl)cc2)C1O (stereo not drawn) [Compound 294]	+ (Indicates inhibition greater than . . . 50%)
